Data: patent US11325936B2, “Sialidase inhibitors and preparation thereof” (The Regents of the University of California, priority 2017, dated 2022)

What was measured:
PmST1 = PmST1 (Pasteurella multocida, UniProt Q15KI8); test: Sialidase inhibition assay (Example 7); assay type: biochemical; conditions: 1 mM of each inhibitor; substrate Neu5Acα2-3GalβpNP 0.3 mM; CMP 0.4 mM; pH 5.5; read-out: Percentage inhibition (%) against PmST1
hNEU2 = hNEU2 (Homo sapiens, UniProt Q9Y3R4); test: Sialidase inhibition assay (Example 7); assay type: biochemical; conditions: 1 mM of each inhibitor; substrate Neu5Acα2-3GalβpNP 0.3 mM; pH 5.0; read-out: Percentage inhibition (%) against hNEU2
CpNanI = assay type: biochemical, Clostridium perfringens; conditions: 1 mM of each inhibitor; substrate Neu5Acα2-3GalβpNP 0.3 mM; pH 5.0
VcSialidase = VcSialidase (Vibrio cholerae serotype O1, UniProt P0C6E9); test: Sialidase inhibition assay (Example 7); assay type: biochemical; conditions: for inhibition at 1000 µM: pH 5.5, read-out: Percentage inhibition (%) against VcSialidase
SpNanC [1] = molecular target: T1, SpNanC (Streptococcus pneumoniae, UniProt A0A0H2UQE4); test: Sialidase inhibition assay (Example 7); conditions: for inhibition at 1000 µM: pH 6.5, read-out: Percentage inhibition (%) against SpNanC
SpNanB [2] = molecular target: T2, SpNanB (Streptococcus pneumoniae serotype 4, UniProt Q54727, E68D/K536E/K577E/N393D/S59P); test: Sialidase inhibition assay (Example 7); assay type: biochemical; conditions: for inhibition at 1000 µM: pH 6, read-out: Percentage inhibition (%) against SpNanB; for Percentage inhibition (%) against SpNanB: 1 mM of each inhibitor, substrate Neu5Acα2-3GalβpNP 0.3 mM, pH 6.0
SpNanA = SpNanA (Streptococcus pneumoniae, UniProt P62575); test: Sialidase inhibition assay (Example 7); assay type: biochemical; conditions: for inhibition at 1000 µM: pH 6, read-out: Percentage inhibition (%) against SpNanA; for Percentage inhibition (%) against SpNanA: 1 mM of each inhibitor, substrate Neu5Acα2-3GalβpNP 0.3 mM, pH 6.0
BiNanH2 = BiNanH2 (Bifidobacterium longum subsp. infantis, UniProt A0ACD7UU12); test: Sialidase inhibition assay (Example 7); assay type: biochemical; conditions: pH 5, read-out: Percentage inhibition (%) against BiNanH2
AuSialidase = molecular target: T3, AuSialidase (Paenarthrobacter ureafaciens, UniProt Q5W7Q2); test: Sialidase inhibition assay (Example 7); assay type: biochemical, Arthrobacter ureafaciens; conditions: for inhibition at 1000 µM: read-out: Percentage inhibition (%) against AuSialidase
T3 sequence (Q5W7Q2 39-990): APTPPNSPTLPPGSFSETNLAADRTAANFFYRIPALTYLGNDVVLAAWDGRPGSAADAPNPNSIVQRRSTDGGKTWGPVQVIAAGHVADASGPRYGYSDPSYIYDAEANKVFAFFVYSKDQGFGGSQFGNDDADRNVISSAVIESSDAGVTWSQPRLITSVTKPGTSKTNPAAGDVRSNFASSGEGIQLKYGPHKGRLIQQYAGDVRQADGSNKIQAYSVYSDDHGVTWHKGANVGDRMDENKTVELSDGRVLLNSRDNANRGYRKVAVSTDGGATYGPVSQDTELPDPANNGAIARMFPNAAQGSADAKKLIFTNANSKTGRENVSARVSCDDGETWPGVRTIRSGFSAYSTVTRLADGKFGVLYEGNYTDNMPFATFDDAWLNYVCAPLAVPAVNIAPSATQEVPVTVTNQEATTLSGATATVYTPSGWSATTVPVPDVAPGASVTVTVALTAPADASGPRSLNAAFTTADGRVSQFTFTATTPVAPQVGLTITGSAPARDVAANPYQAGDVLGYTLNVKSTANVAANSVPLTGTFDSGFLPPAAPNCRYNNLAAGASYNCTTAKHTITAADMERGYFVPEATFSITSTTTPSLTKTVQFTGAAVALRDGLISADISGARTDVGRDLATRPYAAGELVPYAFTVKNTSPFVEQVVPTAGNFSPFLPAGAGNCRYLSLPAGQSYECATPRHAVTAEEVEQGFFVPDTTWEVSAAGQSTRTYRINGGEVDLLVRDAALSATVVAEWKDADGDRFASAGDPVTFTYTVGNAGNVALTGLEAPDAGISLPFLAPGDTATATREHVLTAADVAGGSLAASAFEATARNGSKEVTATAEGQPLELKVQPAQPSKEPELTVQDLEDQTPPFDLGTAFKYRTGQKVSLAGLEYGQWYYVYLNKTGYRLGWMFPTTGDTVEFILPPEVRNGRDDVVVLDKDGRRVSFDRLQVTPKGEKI

SpNanB [3] = molecular target: T2, SpNanB; test: Hydrolysis of 2,7-anhydro-sialic acids by SpNanB; conditions: SpNanB (1.0 mg/mL); 37° C. for 24 h
SpNanC [4] = conditions: previously reported recombinant SpNanC; cited from earlier work
SpNanC [5] = molecular target: T1, SpNanC; conditions: Tris-HCl pH 7.0, 10 min at 37° C.
SpNanC [6] = test: Substrate specificity assay of SpNanC; conditions: sialoside substrate 0.3 mM; SpNanC (2 μg); Tris-HCl pH 7.0; 30 min, 37° C.
SpNanB [7] = molecular target: T2, SpNanB; test: Substrate specificity of SpNanB; conditions: pNP-tagged α2-3-linked sialosides
[8] = 1 mM of each inhibitor, substrate Neu5Acα2-3GalβpNP 0.3 mM, pH 5.5

Chain of SpNanA (P62575 54-1006): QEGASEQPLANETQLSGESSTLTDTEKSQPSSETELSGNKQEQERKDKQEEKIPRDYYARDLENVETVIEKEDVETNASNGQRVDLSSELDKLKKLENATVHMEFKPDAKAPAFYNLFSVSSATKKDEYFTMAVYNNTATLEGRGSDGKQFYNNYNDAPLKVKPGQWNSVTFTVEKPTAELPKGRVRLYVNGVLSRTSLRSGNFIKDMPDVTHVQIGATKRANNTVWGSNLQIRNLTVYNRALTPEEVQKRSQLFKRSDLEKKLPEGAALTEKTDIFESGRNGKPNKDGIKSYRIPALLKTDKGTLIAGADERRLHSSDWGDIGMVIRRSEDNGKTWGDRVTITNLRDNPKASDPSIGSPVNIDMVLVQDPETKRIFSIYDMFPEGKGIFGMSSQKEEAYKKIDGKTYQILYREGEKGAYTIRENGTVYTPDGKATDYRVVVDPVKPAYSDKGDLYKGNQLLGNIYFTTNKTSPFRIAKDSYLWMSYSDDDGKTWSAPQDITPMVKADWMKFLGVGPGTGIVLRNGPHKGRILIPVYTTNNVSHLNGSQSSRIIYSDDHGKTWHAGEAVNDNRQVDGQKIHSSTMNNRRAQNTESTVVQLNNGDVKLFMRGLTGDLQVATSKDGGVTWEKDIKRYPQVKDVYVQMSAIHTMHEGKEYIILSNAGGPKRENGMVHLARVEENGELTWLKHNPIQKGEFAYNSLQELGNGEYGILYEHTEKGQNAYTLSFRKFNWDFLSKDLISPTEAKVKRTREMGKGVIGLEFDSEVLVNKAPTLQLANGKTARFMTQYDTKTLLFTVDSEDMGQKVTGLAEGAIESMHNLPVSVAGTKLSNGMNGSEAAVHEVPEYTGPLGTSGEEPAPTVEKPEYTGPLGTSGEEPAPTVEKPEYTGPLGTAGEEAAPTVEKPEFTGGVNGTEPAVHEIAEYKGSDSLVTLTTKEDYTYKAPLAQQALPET
Chain of hNEU2 (Q9Y3R4 whole entry): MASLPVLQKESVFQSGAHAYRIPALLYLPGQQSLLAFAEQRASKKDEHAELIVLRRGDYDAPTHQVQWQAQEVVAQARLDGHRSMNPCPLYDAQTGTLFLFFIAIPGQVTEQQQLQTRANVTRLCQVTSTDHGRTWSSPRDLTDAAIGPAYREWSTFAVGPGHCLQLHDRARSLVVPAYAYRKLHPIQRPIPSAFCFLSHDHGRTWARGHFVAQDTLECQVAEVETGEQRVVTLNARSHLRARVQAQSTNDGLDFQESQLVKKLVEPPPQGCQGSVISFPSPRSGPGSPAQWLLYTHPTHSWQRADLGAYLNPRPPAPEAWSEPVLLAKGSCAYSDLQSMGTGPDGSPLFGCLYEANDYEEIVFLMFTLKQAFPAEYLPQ
T2 sequence (Q54727 30-697 S59P/E68D/N393D/K536E/K577E): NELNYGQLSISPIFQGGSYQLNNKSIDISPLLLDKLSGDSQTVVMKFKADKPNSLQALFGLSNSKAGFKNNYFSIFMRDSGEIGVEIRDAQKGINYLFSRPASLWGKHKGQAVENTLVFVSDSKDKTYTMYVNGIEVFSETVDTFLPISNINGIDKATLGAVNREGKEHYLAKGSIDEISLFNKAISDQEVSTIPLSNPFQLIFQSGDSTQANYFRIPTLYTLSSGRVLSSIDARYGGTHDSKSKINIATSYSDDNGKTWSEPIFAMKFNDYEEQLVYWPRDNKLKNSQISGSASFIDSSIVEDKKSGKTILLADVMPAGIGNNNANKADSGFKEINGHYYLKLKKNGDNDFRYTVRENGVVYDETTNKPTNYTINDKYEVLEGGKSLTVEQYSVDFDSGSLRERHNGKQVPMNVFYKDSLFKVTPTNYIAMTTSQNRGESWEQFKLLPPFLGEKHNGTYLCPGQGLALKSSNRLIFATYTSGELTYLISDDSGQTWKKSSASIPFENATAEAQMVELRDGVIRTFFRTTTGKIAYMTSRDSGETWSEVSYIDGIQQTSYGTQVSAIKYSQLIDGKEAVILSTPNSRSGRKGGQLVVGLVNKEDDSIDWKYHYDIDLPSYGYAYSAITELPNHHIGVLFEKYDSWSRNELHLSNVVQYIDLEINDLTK
T1 sequence (A0A0H2UQE4 entry or part of it): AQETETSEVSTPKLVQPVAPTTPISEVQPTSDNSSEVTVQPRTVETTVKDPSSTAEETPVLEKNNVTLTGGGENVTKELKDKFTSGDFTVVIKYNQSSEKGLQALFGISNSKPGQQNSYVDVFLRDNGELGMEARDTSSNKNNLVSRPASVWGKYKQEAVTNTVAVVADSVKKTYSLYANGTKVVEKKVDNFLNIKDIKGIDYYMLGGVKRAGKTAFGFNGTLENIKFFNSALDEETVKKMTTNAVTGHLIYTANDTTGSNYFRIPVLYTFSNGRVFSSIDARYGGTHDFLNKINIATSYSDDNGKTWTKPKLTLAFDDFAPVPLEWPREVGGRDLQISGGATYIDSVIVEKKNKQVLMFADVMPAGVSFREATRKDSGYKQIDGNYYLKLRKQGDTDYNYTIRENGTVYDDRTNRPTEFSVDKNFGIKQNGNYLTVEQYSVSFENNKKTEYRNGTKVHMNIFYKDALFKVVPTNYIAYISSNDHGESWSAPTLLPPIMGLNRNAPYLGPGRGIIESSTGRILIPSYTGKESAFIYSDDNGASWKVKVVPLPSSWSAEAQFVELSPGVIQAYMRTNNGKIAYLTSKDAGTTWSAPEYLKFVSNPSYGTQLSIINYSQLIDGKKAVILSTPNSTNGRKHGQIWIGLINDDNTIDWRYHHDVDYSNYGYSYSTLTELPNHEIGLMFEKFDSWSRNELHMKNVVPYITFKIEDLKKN
Chain of BiNanH2 (A0ACD7UU12 entry or part of it): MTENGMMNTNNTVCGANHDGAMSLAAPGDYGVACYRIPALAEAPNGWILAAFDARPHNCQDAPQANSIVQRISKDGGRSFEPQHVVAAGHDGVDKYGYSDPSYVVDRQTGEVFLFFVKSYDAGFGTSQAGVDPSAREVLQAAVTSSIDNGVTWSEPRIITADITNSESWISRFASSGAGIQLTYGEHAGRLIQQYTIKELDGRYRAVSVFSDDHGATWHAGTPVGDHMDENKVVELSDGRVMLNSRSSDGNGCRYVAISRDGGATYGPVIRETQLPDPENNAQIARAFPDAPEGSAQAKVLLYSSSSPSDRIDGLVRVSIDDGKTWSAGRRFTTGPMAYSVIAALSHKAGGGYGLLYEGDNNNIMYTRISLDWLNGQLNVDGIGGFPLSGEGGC
Chain of PmST1 (Q15KI8 entry or part of it): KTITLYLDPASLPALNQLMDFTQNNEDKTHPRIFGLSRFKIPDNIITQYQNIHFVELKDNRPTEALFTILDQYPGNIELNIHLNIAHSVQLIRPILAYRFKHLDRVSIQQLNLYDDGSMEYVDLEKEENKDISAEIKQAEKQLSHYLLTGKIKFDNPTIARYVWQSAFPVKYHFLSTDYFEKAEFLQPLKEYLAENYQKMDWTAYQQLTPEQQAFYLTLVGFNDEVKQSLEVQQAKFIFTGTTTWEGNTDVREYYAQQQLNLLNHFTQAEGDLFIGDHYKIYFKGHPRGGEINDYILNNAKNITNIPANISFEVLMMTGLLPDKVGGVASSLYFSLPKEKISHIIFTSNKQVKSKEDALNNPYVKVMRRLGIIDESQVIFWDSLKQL
Chain of VcSialidase (P0C6E9 25-781): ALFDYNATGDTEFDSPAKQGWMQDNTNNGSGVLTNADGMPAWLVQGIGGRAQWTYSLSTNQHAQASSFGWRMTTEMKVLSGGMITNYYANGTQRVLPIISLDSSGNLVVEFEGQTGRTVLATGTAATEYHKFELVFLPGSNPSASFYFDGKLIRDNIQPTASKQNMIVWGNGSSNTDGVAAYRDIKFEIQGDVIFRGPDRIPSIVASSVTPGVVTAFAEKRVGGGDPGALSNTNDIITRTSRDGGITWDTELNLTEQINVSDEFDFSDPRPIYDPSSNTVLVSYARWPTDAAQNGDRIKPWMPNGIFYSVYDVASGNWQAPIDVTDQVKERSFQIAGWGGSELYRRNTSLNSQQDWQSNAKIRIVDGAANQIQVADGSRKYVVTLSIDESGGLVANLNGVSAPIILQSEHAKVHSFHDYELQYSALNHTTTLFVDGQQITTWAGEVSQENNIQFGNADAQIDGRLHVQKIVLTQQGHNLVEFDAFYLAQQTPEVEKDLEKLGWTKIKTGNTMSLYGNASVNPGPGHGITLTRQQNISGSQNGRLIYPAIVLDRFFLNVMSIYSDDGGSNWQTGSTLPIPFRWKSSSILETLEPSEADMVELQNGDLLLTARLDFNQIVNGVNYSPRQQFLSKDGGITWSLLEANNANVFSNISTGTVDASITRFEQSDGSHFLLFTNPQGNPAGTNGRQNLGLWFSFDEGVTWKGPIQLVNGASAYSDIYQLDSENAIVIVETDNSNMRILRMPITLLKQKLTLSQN

| Compound | inhibition at 1000 µM (PmST1) [%] | inhibition at 1000 µM (hNEU2) [%] | Percentage inhibition (%) against CpNanI (CpNanI) [%] | inhibition at 1000 µM (VcSialidase) [%] | inhibition at 1000 µM (SpNanC [1]) [%] | inhibition at 1000 µM (SpNanB [2]) [%] | inhibition at 1000 µM (SpNanA) [%] | inhibition at 1000 µM (BiNanH2) [%] | inhibition at 1000 µM (AuSialidase; [8]) [%] | IC50 (VcSialidase) [µM] | IC50 (SpNanB [2]) [µM] | Percentage inhibition (%) against SpNanB (SpNanB [2]) | Percentage inhibition (%) against SpNanA (SpNanA) | also measured |
| --- | --- | --- | --- | --- | --- | --- | --- | --- | --- | --- | --- | --- | --- | --- |
| N[C@H]1[C@H]2O[C@@](C(=O)O)(C[C@@H]1O)O[C@@H]2[C@H](O)CO [2-3, 5-Amino-2,7-anhydro-3,5-dideoxy-α-D-glycero-D-galacto-non-2-ulopyranosonic acid] | 13.8 ± 3.3 | 1.4 ± 2.4 | 10.1 ± 5.7 | 1.3 ± 2 | 14.9 ± 3 | 11.7 ± 2.6 | 19.3 ± 4.2 | 3.2 ± 3.2 | 1.3 ± 2.2 |  |  |  |  |  |
| O=C(N[C@H]1[C@H]2O[C@@](C(=O)O)(C[C@@H]1O)O[C@@H]2[C@H](O)CO)C(F)(F)F [2-2, 2,7-Anhydro-3,5-dideoxy-5-trifluoroacetamido-α-D-glycero-D-galacto-non-2-ulopyranosonic acid] | 11 ± 2.7 | 2.5 ± 2.1 | 44.1 ± 1.0 | 62.1 ± 0.6 | 4.4 ± 2 | 68.2 ± 2.6 | 83.8 ± 0.3 | 3.8 ± 2.6 | 85.1 ± 0.3 | 500 to 1000 | 250 to 500 | weak inhibition | moderate inhibitory activity | Percentage inhibition (%) against VcSialidase (VcSialidase; [8]): weak inhibition; Percentage inhibition (%) against AuSialidase (AuSialidase; [8]): moderate inhibitory activity; IC50 (AuSialidase; read-out: IC50 against AuSialidase): 225 ± 34 µM |
| O=C(O)[C@@]12C[C@@H](O)[C@@H](NC3CCCCC3)C(O1)[C@@H]([C@H](O)CO)O2 [2-4] | 12.3 ± 1.9 | 3.6 ± 0.1 | 13.6 ± 0.1 | 1.2 ± 0.7 | 94.2 ± 0.1 | 86.6 ± 0.3 | 61.2 ± 0.6 | 1.2 ± 0.9 | 16.8 ± 2.4 | > 1000 | 180 ± 23 | effective inhibitory activity | weak inhibition | Percentage inhibition (%) against SpNanC (SpNanC [1]; 1 mM of each inhibitor, substrate Neu5Acα2-3GalβpNP 0.3 mM, pH 6.5): showed inhibition; IC50 (SpNanA): 500 to 1000 µM |
| CC(=O)N[C@H]1[C@H]2O[C@@](C(=O)O)(C[C@@H]1O)O[C@@H]2[C@H](O)CO [2-1, 5-Acetamido-2,7-anhydro-3,5-dideoxy-α-D-glycero-D-galacto-non-2-ulopyranosonic acid] | 10.2 ± 2.8 | 4.6 ± 1.1 | 26.7 ± 3.7 | 22.7 ± 1.2 | 3 ± 1.9 | 30 ± 1.7 | 36.4 ± 0.1 | 6.6 ± 1.8 | 49.4 ± 1.3 |  |  |  |  | Conversion to Neu5Ac by SpNanB, estimated yield based on TLC (SpNanB [3]): 80% |
| CC(=O)N[C@H]1[C@H]([C@H](O)[C@H](O)CO)O[C@@](O[C@H]2[C@@H](O)[C@@H](CO)O[C@@H](O[C@H]3[C@H](O)[C@@H](O)C(O)O[C@@H]3CO)[C@@H]2O)(C(=O)O)C[C@@H]1O (stereo partly drawn) [α2-3-sialyllactose] |  |  |  |  |  |  |  |  |  |  |  |  |  | Km (SpNanC [4]): 1080 ± 350 µM; kcat (SpNanC [4]): 0.313 ± 0.052 s⁻¹ |
| CC(=O)N[C@H]1[C@H]([C@H](O)[C@H](O)CO)OC(O[C@H]2[C@@H](O)[C@@H](CO)O[C@@H](Oc3ccc([N+](=O)[O-])cc3)[C@@H]2O)(C(=O)O)C[C@@H]1O (some centres unmarked) [Neu5Acα2-3GalβpNP] |  |  |  |  |  |  |  |  |  |  |  |  |  | Km (SpNanC [5]): 2700 ± 500 µM; kcat (SpNanC [5]): 406.8 ± 39.0 s⁻¹; Percentage conversion (%) by SpNanC (SpNanC [6]): 85.1 ± 2.4%; Recognition by SpNanB (substrate specificity) (SpNanB [7]): + (+ represents >80% conversion) |
